Measurements reported in patent US8088889B2, “Teneurin c-terminal associated peptides (TCAP) and uses thereof” (priority 2002, dated 2012).
Entries after “also recorded” stand apart in the source; their conditions may differ. Ends that are not written are not given here.

Key:
N38 hypothalamic cells = assay: Microarray gene expression in N38 hypothalamic cells; type: cell-based, mouse; settings: 1 nM
Experimental: Total RNA (TRNA) was isolated from 3 independent treated and untreated N38 hypothalamic cell cultures, pooled (to reduce the noise), utilizing Trizol Reagent (GIBCO/BRL) following the manufacturer's protocol. The quality of total RNA was assessed using an Agilent 2100 Bioanalyzer (version A.02.01S1232, Agilent Technologies). Only RNA with the OD ratio of 1.99-2.0 at 260/280 was used.
Hybridizations were performed on the Mouse MU74Av2 GeneChip Set (Affymetrix, Santa Clara, Calif.). Samples were prepared for hybridization according to Affymetrix instructions. Briefly, a primer encoding the T7 RNA polymerase promoter linked to oligo-dT17 was used to prime double-stranded cDNA synthesis from each mRNA sample using Superscript II RNase H^− reverse transcriptase (Life Technologies, Rockville, Md.). Each purified (Qiaquick kit, Qiagen) double-stranded cDNA was in vitro transcribed using T7 RNA polymerase (T7 kit; Enzo), incorporating biotin-UTP and biotin-CTP (Enzo Biochemicals, New York, N.Y.) into the cRNAs, followed by purification using RNEasy (Qiagen) and quantitated by measuring absorption at 260 nm/280 nm. Samples were fragmented and hybridized to the Chip for 16 h at 45° C. and scanned (GeneArray scanner, Affymetrix). MicroArray Suite Version 5 (MASv5; Affymetrix) was used to scale intensities across the Genechips to 150 fluorescence units, and to determine expression values for each gene on the chip. The expression value for each gene was determined by calculating the average of differences (perfect match intensity minus mismatch intensity) of the probe pairs in use for the gene.
Gene analysis software: Data analysis was performed using two independent softwares, GeneChip and GeneSpring. To identify differentially expressed transcripts, pairwise comparison analyses were carried out with MicroArray Suite Version 5 MicroArray Suite Version 5 (MASv5; Affymetrix). This approach, which is based on the Mann-Whitney pairwise comparison test, allows the ranking of results by concordance, as well as the calculation of significance (P value) of each identified change in gene expression. Statistically significant genes (P<0.05) were selected for further analysis. Moreover, statistically significant changes in mean expression values were determined by importing the data from MASv5 into GeneSpring 5 (Silicon Genetics, Redwood City, Calif.). A stepwise process was followed, first with normalizations. A per-chip followed by a per-gene normalization in order to facilitate direct comparison of biological differences. Next, a second method of filter using Affymetrix data and p value with cut-off of P<0.005 generated 4,841 genes which were used for subsequent analysis utilizing Hierarchical Clustering, k-means, Self Organization Map (SOM) utilizing GeneSpring 5.0.
RNAs isolated from treated and untreated cells were analyzed on oligonucleotide arrays representing 12,884 mouse genes (Affymetrix, http://www.affymetrix.com). Standard filtering (p<0.005) and hierarchical clustering algorithm (average linage method: GeneSpring software—Silicon Genetics) identified significant changes in the expression of 4, 841/12,885 genes with 166 genes showing 1.5 fold down-regulation and 35 genes up-regulation in the TCAP-1-treated cells compared to the untreated cells. […] A G-protein coupled receptor-related signal transduction pathway is indicated by the regulation of genes, CREM, AKAP8, AKAP95 and PDE6A. […] The upregulation in inducible nitric oxide (INOS), a intracellular voltage-gated chloride channel (CLCN3) and the serotonin transporter (SLC6A4) may reflect the down stream actions of cAMP-mediated signal cascade and indicates the potential for TCAP to be involved in neuronal signaling systems. A role in interneuron communication by TCAP is also indicated by the modulation of genes associated with the regulation of vesicle trafficking. […]

Gn11 cells [1] = assay: Flow cytometry DNA content analysis, Gn11 cells; type: cell-based, mouse; settings: after 24 hours
Experimental: (§1) Gn11 immortalized neurons were cultured as previously reported (Tellam et al., 1998) Direct cAMP measurements were performed with the nonacetylated version of a commercial kit (Assay Designs, Ann Arbor, Mich.). After starved by serum-free DMEM for 1 hr and replaced with fresh DMEM without serum, cells were treated for 15 min with TCAP, urocortin or vehicle±CRFR1 antagonist PD171729 in the continued presence of forskolin (1_M) and IBMX (100_M. Protein assays: Total protein was determined using the BCA protein assay method (Pierce Co). MTT Assays: Gn11 cells were seeded into 96-well plates and cultured in full serum DMEM until the cells were 30% confluent. Vehicle, 1 nM, 10 nM or 100 nM TCAP-1 were added into each group (n=8). (FIG. 25A) The MTT assay (Sigma Chemicals) was performed at 0, 6, 12, 24 and 48 hours. Flow Cytometry: DNA content of the Gn11 cells was quantified by staining with propridium iodide and analyzed on a FACSCAN flow cytometer (Beckman Instruments).

Gn11 cells [2] = assay: cAMP accumulation in Gn11 immortalized neurons (Example 12); type: cell-based, mouse
Experimental: as §1

rats = assay: Acoustic startle response after TCAP-1 injection; type: in vivo, rat
Text: Male Wistar rats (250-275 g), were surgically implanted with cannulae (23 gauge) bilaterally into the basolateral nuclei of the amydala (AP −2.8, ML +/−5.0, DV −7.2 mm, from bregma). One week later, the animals were habituated to the acoustic startle reflex (ASR) chambers (MED Associates, grid rod cage measuring 7.5″×3.6″×4.2″), consisting of 25 trials of 120 dB stimuli presented randomly with an inter-stimulus interval of 55-65 seconds, duration of 30 msecs and frequency of 5000 Hz. The same stimulus conditions were used for test days, which consisted of a 25 trial baseline, injection with mouse TCAP-1 (with amidation signal)[SEQ. ID. NO. 40] or vehicle (0.25 μl/side, flow rate 0.5 μl/min), and testing for a further 60 trials post-drug. Each rat received vehicle treatment on the first test day then TCAP-1 (e.g. mouse TCAP-1) in a random and counter balanced fashion in subsequent test days, spaced 48 h apart. On the final test day, all rats again received vehicle treatment. Following histological analysis of cannulae placements, the data of eight rats was retained for statistical analysis.
From the data, rats were divided into high and low anxiety groups depending upon their treatment/baseline ratio for the vehicle. Animals that scored less than one were considered low anxiety, those scoring more than one were considered high anxiety. There were four animals in each anxiety group.

Gn11 cells [3] = assay: MTT assay, Gn11 cells; type: cell-based, mouse; settings: 48 hours
Experimental: as §1

Gn11 cells [4] = assay: Total protein, BCA protein assay, Gn11 cells; type: cell-based, mouse; settings: 1, 10 and 100 nM, after 120 minutes
Experimental: as §1

[5] = 16 hours, relative to untreated control
[6] = treated compared to untreated cells
[7] = micro injected into the basolateral amygdala, 3, 30, 300 pmoles

## TCAP-1: synthetic mouse teneurin-1 C-terminal associated peptide, SEQ. ID. NO: 37 or 38, with amidation signal (QQLLGTGRVQGYDGYFVLSVEQYLELSDSANNIHFMRQSEIGRR-NH2)
N38 hypothalamic cells; [5]
  Fold change AKAP8 (A kinase anchor protein 8): 1.58 fold
  Fold change AKAP95 (A kinase anchor protein 95): 0.60 fold
  Fold change ALK3 (Bone morphogenic protein receptor): 0.60 fold
  Fold change AP4S1 (Adaptor related protein complex): 1.52 fold
  Fold change ARF1 (ADP ribosylation factor 1): 0.63 fold
  Fold change BARK1 (β adrenergic receptor kinase 1): 0.61 fold
  Fold change BMP4 (Bone morphogenic protein-4): 0.52 fold
  Fold change CAII (Casein kinase II): 0.61 fold
  Fold change CAMIII (Calmodulin III): 0.53 fold
  Fold change CD95 (Fas antigen): 0.61 fold
  Fold change CLCN3 (Chloride channel protein 3): 1.66 fold
  Fold change CLM2-B (Cytohesin-2): 0.63 fold
  Fold change CRD-BP (CRD-binding protein): 0.59 fold
  Fold change CREMβ1 (cAMP-responsive element modulator): 1.61 fold
  Fold change DIP1/2 (DAB2 interacting protein): 0.68 fold
  Fold change ERK1 (Mitogen activated protein kinase): 0.64 fold
  Fold change FNBX (Ferredoxin-NADP reductase): 1.61 fold
  Fold change GAS5 (Growth arrest specific transcript): 0.46 fold
  Fold change GBP3 (Guanylate binding protein): 0.63 fold
  Fold change GDAP10 (Ganglioside induced diff. protein 10): 1.62 fold
  Fold change GP25L2 (gp25L brings cargo forward from ER): 1.53 fold
  Fold change GR (Glucocorticoid receptor): 0.66 fold
  Fold change IL1R (Interleukin 1 receptor): 0.60 fold
  Fold change INI1B (Integrase interacting protein 1B): 0.48 fold
  Fold change INOS (Inducible nitric oxide synthetase): 1.50 fold
  Fold change MKI67 (Cell cycle protein regulator): 1.70 fold
  Fold change MMP1 (Matrix metalloproteinase 1): 0.55 fold
  Fold change MMP10 (Matrix metalloproteinase 10): 0.59 fold
  Fold change MOP3 (Circadian rhythm regulator): 1.57 fold
  Fold change P202 (202 interferon activatable protein): 0.61 fold
  Fold change P204 (Interferon activatable protein): 1.85 fold
  Fold change PCDHγ (protocadherin γ): 0.42 fold
  Fold change PDE6A (cGMP Phosphodiesterase α): 1.68 fold
  Fold change PPAN (Peter Pan homologue): 0.62 fold
  Fold change PTK7 (Receptor protein tyrosine kinase): 1.53 fold
  Fold change RAB10 (Ras oncogene homologue): 1.62 fold
  Fold change SDPR (Serum deprivation response protein): 0.57 fold
  Fold change SLC6A4 (Serotonin transporter): 1.53 fold
  Fold change SSG1 (Steroid sensitive gene 1): 0.62 fold
  Fold change ST7 (Suppressor of tumourigenicity): 1.97 fold
  Fold change TTF-1IP (TTF-1 interacting peptide): 0.50 fold
  Fold change YIPID (Rab-mediated membrane transport): 1.88 fold
N38 hypothalamic cells; [6]
  number of genes showing 1.5 fold down-regulation: 166 genes
  number of genes showing up-regulation: 35 genes
Gn11 cells [1]; 1 nM
  incidence of G1 phase at 1 nM: reduced (p<0.05) the incidence of G1 phase
Gn11 cells [1]; 100 nM
  incidence of G1 phase at 100 nM: increased (p<0.05) G1 phase
Gn11 cells [2]; 1 nM, 15 minutes
  increase of cAMP levels over the vehicle-treated cells: 45%
Gn11 cells [2]; 1 nM, FIG. 25A/B
  cAMP accumulation at 1 nM (in words): increased cAMP
Gn11 cells [2]; 10 nM, FIG. 25A
  cAMP accumulation at 10 nM (in words): without effect
Gn11 cells [2]; 100 nM, 15 minutes
  decrease of cAMP accumulation from control cells: 40%
Gn11 cells [2]; 100 nM, FIG. 25A
  cAMP accumulation at 100 nM (in words): decreased (p<0.05) cAMP
rats; administration into the lateral ventricle or amygdala of rats
  acoustic startle response: normalized the acoustic startle response
rats; amygdala-injected, FIG. 24
  relation of effect on startle response to baseline startle response: inversely proportional to the baseline startle response
rats; [7]
  startle magnitude, animals with high treatment-to-baseline ratio (>1): significant (p<0.05) decrease
  startle magnitude, animals with low treatment-to-baseline ratio (<1): significant (p, 0.05) and does dependent increase
Gn11 cells [3]; 1 nM
  MTT activity (mitochondrial activity) at 1 nM: significant (p<0.05) increase; also recorded: increased MTT activity
Gn11 cells [3]; 100 nM
  MTT activity (mitochondrial activity) at 100 nM: decrease; also recorded: decreased (p<0.05) MTT activity
Gn11 cells [4]
  total protein concentration: significant increase; also recorded: stimulated protein synthesis
